Results on 15 compounds are retold here after patent EP4578856A1, “HETEROCYCLIC COMPOUND” (Ubience Inc., priority 2022, dated 2024).

This experiment has as its target ROCK2 protein (Homo sapiens, UniProt O75116). As to the kind of experiment: Degradation inducing activity of ROCK2 protein in HUVEC cells, Western blotting (Simple Western JESS). It counts as cell-based. Also on record: endogenous in cells; host or cells: HUVEC (ATCC CRL-1730). The following applies: HUVEC, 24 h; for inhibition at 1 µM: degradation rate at 1 µM; for inhibition at 10 µM: degradation rate at 10 µM. A digest of the protocol: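 HUVEC cells treated 24 h with compound at 10 µM or 1 µM, then lysed; ROCK2 quantified by capillary Western (Simple Western JESS) using rabbit mAb D1B1, normalized to total loaded protein. Degradation rate (%) calculated relative to DMSO control set at 100%, binned A ≥75%, B 50–75%, C 25–50%, D <25%.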

ROCK2 protein, sequence (O75116 whole entry): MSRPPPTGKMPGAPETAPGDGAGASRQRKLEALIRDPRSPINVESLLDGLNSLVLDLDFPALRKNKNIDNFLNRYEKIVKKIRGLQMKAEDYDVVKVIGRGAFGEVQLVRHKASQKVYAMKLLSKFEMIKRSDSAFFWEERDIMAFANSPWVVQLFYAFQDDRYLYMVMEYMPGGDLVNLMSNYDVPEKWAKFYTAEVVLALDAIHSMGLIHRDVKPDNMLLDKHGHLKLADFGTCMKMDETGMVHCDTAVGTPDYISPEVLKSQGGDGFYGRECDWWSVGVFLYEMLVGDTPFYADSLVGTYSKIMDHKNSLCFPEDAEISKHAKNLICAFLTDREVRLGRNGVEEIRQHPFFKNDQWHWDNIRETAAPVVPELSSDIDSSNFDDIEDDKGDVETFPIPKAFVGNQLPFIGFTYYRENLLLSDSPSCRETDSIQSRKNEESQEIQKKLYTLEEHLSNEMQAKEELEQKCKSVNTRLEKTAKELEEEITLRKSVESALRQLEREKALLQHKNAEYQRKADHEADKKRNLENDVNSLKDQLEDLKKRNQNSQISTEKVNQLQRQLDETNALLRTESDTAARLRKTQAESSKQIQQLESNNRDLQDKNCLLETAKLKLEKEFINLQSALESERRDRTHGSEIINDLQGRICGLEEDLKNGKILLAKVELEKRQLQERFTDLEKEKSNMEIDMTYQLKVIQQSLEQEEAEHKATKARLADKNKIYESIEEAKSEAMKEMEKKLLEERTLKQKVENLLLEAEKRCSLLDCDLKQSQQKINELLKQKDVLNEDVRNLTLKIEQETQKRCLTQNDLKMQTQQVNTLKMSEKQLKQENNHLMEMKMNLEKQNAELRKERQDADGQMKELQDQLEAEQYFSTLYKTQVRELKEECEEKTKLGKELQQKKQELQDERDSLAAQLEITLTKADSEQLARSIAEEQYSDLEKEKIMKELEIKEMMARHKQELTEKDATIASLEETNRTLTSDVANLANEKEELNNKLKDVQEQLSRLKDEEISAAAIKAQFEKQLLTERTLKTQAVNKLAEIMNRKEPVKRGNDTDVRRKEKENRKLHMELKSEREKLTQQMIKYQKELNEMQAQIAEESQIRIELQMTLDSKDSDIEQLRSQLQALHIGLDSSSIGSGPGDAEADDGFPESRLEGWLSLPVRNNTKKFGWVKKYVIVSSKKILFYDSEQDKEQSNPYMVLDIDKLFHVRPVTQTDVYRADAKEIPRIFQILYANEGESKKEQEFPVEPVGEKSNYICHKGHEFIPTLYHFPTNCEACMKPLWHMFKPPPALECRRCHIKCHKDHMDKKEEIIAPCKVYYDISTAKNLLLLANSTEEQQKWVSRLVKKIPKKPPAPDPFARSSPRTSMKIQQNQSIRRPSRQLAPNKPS

`COC[C@H]1CN[C@H](C)CN1CC(=O)N1CC(C)(C)c2nc(CN(C)CCOCCOCCOCCOCCOCCOCCN[C@H](Cc3cccc(F)c3)C(=O)Nc3ccc(-c4ccncc4)cc3)c(Cc3ccc(F)cc3)cc21` [Example 34, (R)-24-(3-Fluorobenzyl)-1-(6-(4-fluorobenzyl)-1-(2-((2R,5R)-2-(methoxymethyl)-5-methylpiperazin-1-yl)acetyl)-3,3-dimethyl-2,3-dihydro-1H-pyrrolo[3,2-b]pyridin-5-yl)-2-methyl-N-(4-(pyridin-4-yl)phenyl)-5,8,11,14,17,20-hexaoxa-2,23-diazapentacosan-25-amide]: the inhibition (commonly how much of the control response was suppressed) at 1 µM is less than 25% and the inhibition at 10 µM was not below 75%.

For `COC[C@H]1CN[C@H](C)CN1CC(=O)N1CC(C)(C)c2ncc(Cc3ccccc3OCCOCCOCCOCCOCCN[C@H](C)c3ccc(C(=O)Nc4ccncc4)cc3)cc21` [Example 67, 4-((R)-17-(2-((1-(2-((2R,5R)-2-(Methoxymethyl)-5-methylpiperazin-1-yl)acetyl)-3,3-dimethyl-2,3-dihydro-1H-pyrrolo[3,2-b]pyridin-6-yl)methyl)phenoxy)-6,9,12,15-tetraoxa-3-azaheptadecan-2-yl)-N-(pyridin-4-yl)benzamide], the inhibition at 1 µM was less than 25% and the inhibition at 10 µM fell in the range of 50 to 75%.

Compound `COC[C@H]1CN[C@H](C)CN1CC(=O)N1CC(C)(C)c2ncc(Cc3cccc(OCCOCCN[C@H](C)c4ccc(C(=O)Nc5ccncc5)cc4)c3)cc21` [Example 43, 4-((R)-1-((2-(2-(3-((1-(2-((2R,5R)-2-(Methoxymethyl)-5-methylpiperazin-1-yl)acetyl)-3,3-dimethyl-2,3-dihydro-1H-pyrrolo[3,2-b]pyridin-6-yl)methyl)phenoxy)ethoxy)ethyl)amino)ethyl)-N-(pyridin-4-yl)benzamide] came in with an inhibition at 1 µM of 25 to 50% and an inhibition at 10 µM not below 75%.

In turn, `COC[C@H]1CN[C@H](C)CN1CC(=O)N1CC(C)(C)c2ncc(Cc3cccc(OCCOCCOCCOCCOCCOCCOCCOCCNC[C@@H](C(=O)Nc4ccc5cnccc5c4)c4ccccc4)c3)cc21` [Example 63, (S)-N-(Isoquinolin-6-yl)-1-(3-((1-(2-((2R,5R)-2-(methoxymethyl)-5-methylpiperazin-1-yl)acetyl)-3,3-dimethyl-2,3-dihydro-1H-pyrrolo[3,2-b]pyridin-6-yl)methyl)phenoxy)-26-phenyl-3,6,9,12,15,18,21-heptaoxa-24-azaheptacosan-27-amide] gave an inhibition at 1 µM of less than 25% and an inhibition at 10 µM of 50 to 75%.

The compound `COC[C@H]1CN[C@H](C)CN1CC(=O)N1CC(C)(C)c2ncc(Cc3ccccc3OCCOCCOCCOCCOCCOCCN[C@H](Cc3cccc(F)c3)C(=O)Nc3ccc(-c4ccncc4)cc3)cc21` [Example 75, (R)-2-(3-Fluorobenzyl)-20-(2-((1-(2-((2R,5R)-2-(methoxymethyl)-5-methylpiperazin-1-yl)acetyl)-3,3-dimethyl-2,3-dihydro-1H-pyrrolo[3,2-b]pyridin-6-yl)methyl)phenoxy)-N-(4-(pyridin-4-yl)phenyl)-6,9,12,15,18-pentaoxa-3-azaicosanamide] yielded an inhibition at 1 µM of less than 25% and an inhibition at 10 µM of 50 to 75%.

Regarding `COC[C@H]1CN[C@H](C)CN1CC(=O)N1CC(C)(C)c2ncc(Cc3cccc(OCCOCCOCCOCCOCCOCCOCCN[C@H](Cc4cccc(F)c4)C(=O)Nc4ccc(-c5ccncc5)cc4)c3)cc21` [Example 55, (R)-2-(3-Fluorobenzyl)-23-(3-((1-(2-((2R,5R)-2-(methoxymethyl)-5-methylpiperazin-1-yl)acetyl)-3,3-dimethyl-2,3-dihydro-1H-pyrrolo[3,2-b]pyridin-6-yl)methyl)phenoxy)-N-(4-(pyridin-4-yl)phenyl)-6,9,12,15,18,21-hexaoxa-3-azatricosanamide], the inhibition at 1 µM was less than 25% and the inhibition at 10 µM is 50 to 75%.

With `COC[C@H]1CN[C@H](C)CN1CC(=O)N1CC(C)(C)c2ncc(Cc3ccccc3OCCOCCOCCOCCOCCNC[C@@H](C(=O)Nc3ccc4cnccc4c3)c3ccccc3)cc21` [Example 81, (S)-N-(Isoquinolin-6-yl)-1-(2-((1-(2-((2R,5R)-2-(methoxymethyl)-5-methylpiperazin-1-yl)acetyl)-3,3-dimethyl-2,3-dihydro-1H-pyrrolo[3,2-b]pyridin-6-yl)methyl)phenoxy)-17-phenyl-3,6,9,12-tetraoxa-15-azaoctadecan-18-amide], the inhibition at 1 µM is 50 to 75% and the inhibition at 10 µM is 25 to 50%.

Consider `COC[C@H]1CN[C@H](C)CN1CC(=O)N1CC(C)(C)c2ncc(Cc3cccc(OCCOCCOCCOCCOCCNC[C@@H](C(=O)Nc4ccc5cnccc5c4)c4ccccc4)c3)cc21` [Example 60, (S)-N-(Isoquinolin-6-yl)-1-(3-((1-(2-((2R,5R)-2-(methoxymethyl)-5-methylpiperazin-1-yl)acetyl)-3,3-dimethyl-2,3-dihydro-1H-pyrrolo[3,2-b]pyridin-6-yl)methyl)phenoxy)-17-phenyl-3,6,9,12-tetraoxa-15-azaoctadecan-18-amide], for which the inhibition at 1 µM was in the range of 25 to 50% and the inhibition at 10 µM was not below 75%.

Compound `COC[C@H]1CN[C@H](C)CN1CC(=O)N1CC(C)(C)c2nc(CN(C)CCOCCOCCOCCOCCOCCNC[C@@H](C(=O)Nc3ccc4cnccc4c3)c3ccccc3)c(Cc3ccc(F)cc3)cc21` [Example 40, (S)-1-(6-(4-Fluorobenzyl)-1-(2-((2R,5R)-2-(methoxymethyl)-5-methylpiperazin-1-yl)acetyl)-3,3-dimethyl-2,3-dihydro-1H-pyrrolo[3,2-b]pyridin-5-yl)-N-(isoquinolin-6-yl)-2-methyl-22-phenyl-5,8,11,14,17-pentaoxa-2,20-diazatricosan-23-amide] showed an inhibition at 1 µM of 25 to 50% and an inhibition at 10 µM of 50 to 75%.

On to `COC[C@H]1CN[C@H](C)CN1CC(=O)N1CC(C)(C)c2ncc(Cc3ccccc3OCCOCCOCCOCCN[C@H](Cc3cccc(F)c3)C(=O)Nc3ccc(-c4ccncc4)cc3)cc21` [Example 73, (R)-2-(3-Fluorobenzyl)-14-(2-((1-(2-((2R,5R)-2-(methoxymethyl)-5-methylpiperazin-1-yl)acetyl)-3,3-dimethyl-2,3-dihydro-1H-pyrrolo[3,2-b]pyridin-6-yl)methyl)phenoxy)-N-(4-(pyridin-4-yl)phenyl)-6,9,12-trioxa-3-azatetradecanamide], for which the inhibition at 1 µM is less than 25% and the inhibition at 10 µM was not below 75%.

With `COC[C@H]1CN[C@H](C)CN1CC(=O)N1CC(C)(C)c2ncc(Cc3ccccc3OCCOCCOCCN[C@H](Cc3cccc(F)c3)C(=O)Nc3ccc(-c4ccncc4)cc3)cc21` [Example 72, (R)-3-(3-Fluorophenyl)-2-((2-(2-(2-(2-((1-(2-((2R,5R)-2-(methoxymethyl)-5-methylpiperazin-1-yl)acetyl)-3,3-dimethyl-2,3-dihydro-1H-pyrrolo[3,2-b]pyridin-6-yl)methyl)phenoxy)ethoxy)ethoxy)ethyl)amino)-N-(4-(pyridin-4-yl)phenyl)propanamide], the inhibition at 1 µM is less than 25% and the inhibition at 10 µM is not below 75%.

In turn, `COC[C@H]1CN[C@H](C)CN1CC(=O)N1CC(C)(C)c2ncc(Cc3ccccc3OCCOCCN[C@H](C)c3ccc(C(=O)Nc4ccncc4)cc3)cc21` [Example 64, 4-((R)-1-((2-(2-(2-((1-(2-((2R,5R)-2-(Methoxymethyl)-5-methylpiperazin-1-yl)acetyl)-3,3-dimethyl-2,3-dihydro-1H-pyrrolo[3,2-b]pyridin-6-yl)methyl)phenoxy)ethoxy)ethyl)amino)ethyl)-N-(pyridin-4-yl)benzamide] had an inhibition at 1 µM of less than 25% and an inhibition at 10 µM of 50 to 75%.

`COC[C@H]1CN[C@H](C)CN1CC(=O)N1CC(C)(C)c2ncc(Cc3ccccc3OCCOCCOCCOCCOCCOCCNC[C@@H](C(=O)Nc3ccc4cnccc4c3)c3ccccc3)cc21` [Example 82, (S)-N-(Isoquinolin-6-yl)-1-(2-((1-(2-((2R,5R)-2-(methoxymethyl)-5-methylpiperazin-1-yl)acetyl)-3,3-dimethyl-2,3-dihydro-1H-pyrrolo[3,2-b]pyridin-6-yl)methyl)phenoxy)-20-phenyl-3,6,9,12,15-pentaoxa-18-azahenicosan-21-amide]: the inhibition at 1 µM was 25 to 50% and the inhibition at 10 µM is not below 75%.

For the compound `C[C@@H]1CN(CC(=O)N2CC(C)(C)c3ncc(Cc4ccc(F)cc4)cc32)[C@@H](CN(C)CCOCCOCCOCCOCCOCCOCCOCCNC[C@@H](C(=O)Nc2ccc3cnccc3c2)c2ccccc2)CN1` [Example 21, (S)-1-((2R,5R)-1-(2-(6-(4-Fluorobenzyl)-3,3-dimethyl-2,3-dihydro-1H-pyrrolo[3,2-b]pyridin-1-yl)-2-oxoethyl)-5-methylpiperazin-2-yl)-N-(isoquinolin-6-yl)-2-methyl-28-phenyl-5,8,11,14,17,20,23-heptaoxa-2,26-diazanonacosan-29-amide], the inhibition at 1 µM was in the range of 25 to 50% and the inhibition at 10 µM was 50 to 75%.

As to `C[C@@H]1CN(CC(=O)N2CC(C)(C)c3ncc(Cc4ccc(F)cc4)cc32)[C@@H](CN(C)CCOCCOCCOCCOCCNC[C@@H](C(=O)Nc2ccc3cnccc3c2)c2ccccc2)CN1` [Example 18, (S)-1-((2R,5R)-1-(2-(6-(4-Fluorobenzyl)-3,3-dimethyl-2,3-dihydro-1H-pyrrolo[3,2-b]pyridin-1-yl)-2-oxoethyl)-5-methylpiperazin-2-yl)-N-(isoquinolin-6-yl)-2-methyl-19-phenyl-5,8,11,14-tetraoxa-2,17-diazaicosan-20-amide], the inhibition at 1 µM was not below 75% and the inhibition at 10 µM is not below 75%.
